# Molecular target: T1, farnesyl transferase (Homo sapiens, UniProt P49354+P49356)
# T1 construct: This enzyme has been partially purified from human THP1 cells; endogenous in cells; host or cells: human THP1 cells (enzyme partially purified from them)
# Assay: test for inhibition of farnesyl transferase by scintillation proximity assay (SPA)
# Assay type: biochemical
# Details: partially purified Ftase from human THP1 cells, 60 minutes at 37° C., BLB and 3H FPP substrates
# Experimental: The principle of the SPA (Scintillation Proximity Assay) technology is applied to the assay of the enzymatic activity of farnesyl transferase. According to this method, the farnesyl transferase inhibiting activity is determined by the quantity of [^3 H] farnesyl transferred from [^3 H] farnesyl pyrophosphate, ^3 H FPP, to a biotinylated acceptor substrate.
# Method used to detect the active metabolites: test for inhibition of farnesyl transferase by scintillation proximity assay (SPA)
# The donor substrate, farnesyl pyrophosphate, is labelled with tritium ^3 H FPP. […] The radiolabelled peptide excites the beads which then emit light which is quantified in a solid-liquid scintillation counter (Topcount®, Packard).
# The plate is incubated for 60 minutes at 37° C. and the reaction is stopped by adding 150 μl of stopping reagent containing the SPA beads. The plate is sealed with an adhesive film and left for 30 minutes at room temperature in order to reach equilibrium, and then counted in the Topcount counter. […] The IC50 values of the compounds are calculated by nonlinear regression.
structure (smiles),measurement,value
CC(C)C1CCC2C1(C)CCC1(C)C3=CCC4C(C)(C(=O)O)C(O)C(O)C(O)C4(COP(=O)(O)O)C3CCC21C (stereo not shown) [Example 1],IC50,830 nM
